Reference: US5126291A, “Sulfur inhibitors of phospholipase A-Z” (American Cyanamid Company, priority 1990, dated 1992)
Structures can show the parent of a compound that is named as a salt. Where two headings read alike, the source gives them in different places.

Key:
porcine pancreatic PLA2 = biological target: T1, porcine pancreatic PLA2 (Sus scrofa, UniProt P00592); assay: Inhibition of porcine pancreatic phospholipase A2 (PLA2), radiochemical assay; type: biochemical; settings: for Percent Inhibition at 10 ug/ml / inhibition at 10 µg/mL: 10 ug/ml inhibitor; for inhibition at 10 µg/mL: read-out: Percent Inhibition at 10 ug/ml
T1 construct: purchased Sigma
T1 sequence (P00592 23-146): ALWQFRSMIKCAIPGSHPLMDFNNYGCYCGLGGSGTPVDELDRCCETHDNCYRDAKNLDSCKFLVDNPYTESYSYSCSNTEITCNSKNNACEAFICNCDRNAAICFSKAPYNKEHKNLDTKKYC
Description: 4-((3-(Dimethylamino)propyl)thio)-1-(hexadecyloxy)-2-butanol, acetate was prepared by the method of Example 64 as a 1 mg/ml solution in methanol. Inhibition of phospholipase A2 activity was measured by a radiochemical assay in which labeled synthetic phosphatidylcholine substrate is converted by porcine pancreatic PLA2 to free radiolabeled arachidonate and lyso phosphatidyl choline. In the assay, radiolabeled arachidonate is extracted from the reaction mixture and separated from unreacted substrate by column or thin layer chromatography. The radioactivity (cpm) in samples is quantified in liquids scintillation counting.
[…] The combined substrate was then redissolved in 0.1M Tris-HCl buffer, pH 9.0, containing 10 mM calcium chloride and 10 mM sodium taurocholate detergent. The mixture was sonicated for 10 to 30 seconds in a Kontes Sonifier to yield a homogeneous dispersion. The "mixed" micellar substrate was clear. An aliquot was reserved for a cpm count (total substrate). The total reaction volume was 500 ul; siliconized glassware or plasticware was used throughout. Porcine pancreatic phospholipase A2 enzyme (Sigma, sp. act. […] U/mg protein and preferably 900 U/mg protein) was diluted 1:750 or 1:1000 in 0.1M Tris-HCl buffer, pH 9.0 (without Ca^++ and detergent).
The test compound was diluted appropriately in phosphate buffered saline. 10 ul aliquots of the stock solution were either incubated with enzyme in buffer in the absence of Ca^++ detergent or were blown under N2 stream with the substrate prior to the addition of buffer. The substrate and buffer were kept on ice until the reaction was started by the addition of enzyme (preincubated with test compound or diluent, or fresh enzyme) to the substrate dispersion in buffer.
Samples (600 ul) were extracted with 3 ml of CHC13 /MeOH solution (2:1) for thin layer chromatography. The phases were separated by gentle centrifugation at 700 rpm for 5 minutes. The organic phase was recovered for either thin layer or column chromatography separation.
For thin layer chromatography, labeled arachidonate extracted with CHC13 /MeOH solution was separated on Silica Gel G TLC plates (Analtech). Twenty ul of a 2 mg/ml internal standard solution of arachidonic acid (Sigma) was combined with 2 to 3 ml of the organic phase. The entire mixture was dried under nitrogen and redissolved in 50 ul of CHC13 /MeOH solution (2:1). A 20 ul sample was counted in 10 ml of Beckman Redi-solv Scintillation fluid HP and spotted in Silica Gel G plates. The solvent system used to develop the plate was a CHC13 /MeOH/13.5N NH3 /H2 O solution (70:30:4:1). Thin layer chromatography plates were developed in a glass chamber for 1 to 11/2 hours, air dried, and the spots visualized in an iodine vapor chamber. Standards of phosphatidyl/choline, lyso phosphatidyl choline, and arachidonic acid (Sigma) were made up as 2 mg/ml stocks in CHC13 /MeOH solution (2:1) and were spotted on the thin layer chromatography plates. Spots corresponding to arachidonate and phospholipid were scraped and counted in 10 ml Beckman Redi-Solv HP scintillation fluid.
For column chromatography, samples were extracted with hexane/diether solution and the upper organic phase recovered. An aliquot was applied to a Silicar CC4 (Maleinckrodt) column. Columns were prepared using 1 ml of 1:1 slurry of Silicar CC4 (Maleinckrodt) in hexane/ether solution in a Pasteur pipet (approximately 2 cm height). Columns were rinsed with 500 ul of hexane/ether solution before adding the sample (300-600 ul) to the columns. Columns were eluted with a total of 6 ml of hexane/ether solution. The 6 ml sample was counted in 10 ml of Beckman Redi-Solv HP scintillation fluid. Thin layer chromatography analysis confirmed that the radioactivity eluted was arachidonate.
3-((3-(Acetyloxy)-4-(hexadecyloxy)-butyl)-thio)-N,N,N-trimethyl-1-propanaminium, iodide was prepared by the method of Example 65 as a 1 mg/ml solution in methanol. […]

[1] = system: spontaneously hypertensive rats; assay: Hypotensive activity: mean arterial blood pressure in conscious cannulated spontaneously hypertensive rats, intravenous; type: in vivo; settings: for Peak Mean Arterial Blood Pressure: spontaneously hypertensive rats, intravenous
Description: Under ether anesthesia, Weeks type cannulas (Peterson Technics) were surgically implanted in the abdominal aorta and vena cave of spontaneously hypertensive rats (Taconic Farms, Germantown, NY) and passed subcutaneously to the back of the neck where they were exteriorized. The cannulas were filled with saline, plugged and the rats returned to single cages where they were allowed food and water ad libitum.
At least three days following implantation of the cannulas, the rats were weighed and placed in Broome style restraining cages. The plug was removed from the aortic catheter which was connected to an arterial pressure transducer (Statham P23ID) using PE 100 polyethylene tubing and a stepdown connector fabricated from stainless steel hypodermic tubing. Mean arterial blood pressure was obtained by electrical damping of the pulse pressure channel. Heart rate was obtained from a tachograph triggered by the pulse pressure channel. All parameters were monitored on a Grass physiological recorder (Model 7).
The plug was removed from the vena cava catheter and a PE 20 polyethylene tubing extension was added using a piece of stainless steel hypodermic tubing. The other end was terminated with a 27 G needle and one ml syringe.
All drugs were dissolved in saline or a mixture of ethanol and saline (25:75V:V) such that the volume injected intravenously was 0.1 ml/100 g body weight. All drugs were flushed in with 0.2 ml saline. Blood pressure was continually monitored both before and after introduction of the test compound.

[2] = 1000 uM substrate concentration

For “3-((3-(Acetyloxy)-4-(hexadecyloxy)-butyl)-thio)-N,N,N-trimethyl-1-propanaminium, chloride [Example 69]”, the Ic50 (porcine pancreatic PLA2; 2 nM substrate concentration) was 2.8 µg/mL, the Ic50 (porcine pancreatic PLA2; 10 uM substrate concentration) was 11.52 ± 10.58 µg/mL and the “Percent Inhibition at 10 ug/ml” value (porcine pancreatic PLA2; 2 nM substrate concentration) was 77%. For the same molecule, the “Percent Inhibition at 10 ug/ml” value (porcine pancreatic PLA2; 10 uM substrate concentration) was 55.3 ± 16.5%, the “Percent Inhibition at 10 ug/ml” value (porcine pancreatic PLA2; 100 uM substrate concentration) was 23% and the Ic50 (porcine pancreatic PLA2; 100 uM substrate concentration) was 45.56 ± 23.60 µg/mL.
`CCCCCCCCCCCCCCCCOCC(CCS(=O)(=O)CCC[N+](C)(C)C)OC(C)=O.[Cl-]` (stereo not shown) [3-((3-(Acetyloxy)-4-(hexadecyloxy)butyl)sulfonyl)-N,N,N-trimethyl-1-propanaminium chloride] was tested, and the “reduced the blood pressure in the spontaneously hypertensive rat” value ([1]; dose of 10 mg/kg (iv), value is a reduction) was 20 mm Hg.
`CCCCCCCCCCCCCCCCOCC(COP(=O)([O-])Oc1cccc(C[N+](C)(C)C)c1)OC(C)=O` (stereo not shown) [3-(((2-(Acetyloxy)-3-(hexadecyloxy)propoxy)hydroxyphosphinyl)oxy)-N,N,N-trimethylbenzenemethanaminium, hydroxide inner salt] was tested, and the “Peak Mean Arterial Blood Pressure” value ([1]; dose 0.1 ug/kg) was -10.4 mm,Hg, the “Peak Mean Arterial Blood Pressure” value ([1]; dose 0.3 ug/kg) was -16.3 mm,Hg and the “Peak Mean Arterial Blood Pressure” value ([1]; dose 1.0 ug/kg) was -37.2 mm,Hg. The “Peak Mean Arterial Blood Pressure” value ([1]; dose 3.0 ug/kg) was -83.9 mm,Hg and the “Peak Mean Arterial Blood Pressure” value ([1]; dose 10.0 ug/kg) was -91.0 mm,Hg.
`CCCCCCCCCCCCCCCCOCC(COP(=O)([O-])OC(C)C[N+](C)(C)C)OC(C)=O` (stereo not shown) [7-(Acetyloxy)-4-hydroxy-N,N,N,2-tetramethyl-3,5,9-trioxa-4-phosphapentacosan-1-aminium, 4-oxide, hydroxide, inner salt] was tested, and the “Peak Mean Arterial Blood Pressure” value ([1]; dose 0.3 ug/kg) was -17.4 mm,Hg, the “Peak Mean Arterial Blood Pressure” value ([1]; dose 1.0 ug/kg) was -40.2 mm,Hg and the “Peak Mean Arterial Blood Pressure” value ([1]; dose 3.0 ug/kg) was -88.8 mm,Hg. For the same molecule, the “Peak Mean Arterial Blood Pressure” value ([1]; dose 10.0 ug/kg) was -96.5 mm,Hg and the “Peak Mean Arterial Blood Pressure” value ([1]; dose 30.0 ug/kg) was -103.4 mm,Hg.
`CCCCCCCCCCCCCCCCOCC(COP(=O)([O-])OCC(c1ccccc1)[N+](C)(C)C)OC(C)=O` (stereo not shown) [7-(Acetyloxy)-4-hydroxy-N,N,N-trimethyl-1-phenyl-3,5,9-trioxa-4-phosphapentacosan-1-aminium, 4-oxide hydroxide inner salt] was tested, and the “Peak Mean Arterial Blood Pressure” value ([1]; dose 10.0 ug/kg) was -59.0 mm,Hg.
With `CCCCCCCCCCCCCCc1cccc(OCC(COP(=O)([O-])OCC(C)[N+](C)(C)C)OC(C)=O)c1` (stereo not shown) [7-Hydroxy-N,N,N-trimethyl-2-oxo-4-((3-tetradecylphenoxy)methyl)3,6,8-trioxa-7-phosphaundecan-10-aminium, 7-oxide, hydroxide, inner salt] the “Peak Mean Arterial Blood Pressure” value ([1]; dose 0.03 ug/kg) was -9.8 mm,Hg, the “Peak Mean Arterial Blood Pressure” value ([1]; dose 0.1 ug/kg) was -17.6 mm,Hg and the “Peak Mean Arterial Blood Pressure” value ([1]; dose 0.3 ug/kg) was -78.7 mm,Hg. The “Peak Mean Arterial Blood Pressure” value ([1]; dose 1.0 ug/kg) was -95.9 mm,Hg.
In the case of `CCCCCCCCCCCCCCCCOCC(COP(=O)([O-])OCC(C)[N+](C)(C)C)OC(C)=O` (stereo not shown) [8-(Acetyloxy)-5-hydroxy-N,N-N-trimethyl-4,6,10-trioxa-5-phosphahexacosan-2-aminium, 5-oxide, hydroxide, inner salt], the “Peak Mean Arterial Blood Pressure” value ([1]; dose 0.03 ug/kg) is reported as -16.4 mm,Hg, the “Peak Mean Arterial Blood Pressure” value ([1]; dose 0.1 ug/kg) is reported as -36.3 mm,Hg and the “Peak Mean Arterial Blood Pressure” value ([1]; dose 0.3 ug/kg) is reported as -58.6 mm,Hg. For the same molecule, the “Peak Mean Arterial Blood Pressure” value ([1]; dose 1.0 ug/kg) was -103.1 mm,Hg and the “Peak Mean Arterial Blood Pressure” value ([1]; dose 3.0 ug/kg) was -118.3 mm,Hg.
`CCCCCCCCCCCCCCCCOCC(CCSCCCN(C)C)OC(C)=O` (stereo not shown) [Example 67, 4-((3-(Dimethylamino)propyl)thio)-1-(hexadecyloxy)-2-butanol, acetate] showed an IC50 (porcine pancreatic PLA2; 2 nM substrate concentration) of 18.6 µM, an IC50 (porcine pancreatic PLA2; 10 uM substrate concentration) of 45.7 µM and an inhibition at 10 µg/mL (porcine pancreatic PLA2; 2 nM substrate concentration) of 54%. The inhibition at 10 µg/mL (porcine pancreatic PLA2; 10 uM substrate concentration) was 33 ± 12.7%, the IC50 (porcine pancreatic PLA2; 100 uM substrate concentration) was 96.7 µM and the IC50 (porcine pancreatic PLA2; 500 uM substrate concentration) was 226 µM.
In the case of `CCCCCCCCCCCCCCCCOCC(CCSCCC[N+](C)(C)C)OC(C)=O` (stereo not shown) [Example 68, 3-((3-(Acetyloxy)-4-(hexadecyloxy)-butyl)-thio)-N,N,N-trimethyl-1-propanaminium, iodide], the IC50 (porcine pancreatic PLA2; 2 nM substrate concentration) is reported as 2.52 µM, the IC50 (porcine pancreatic PLA2; 10 uM substrate concentration) is reported as 10.1 µM and the inhibition at 10 µg/mL (porcine pancreatic PLA2; 2 nM substrate concentration) is reported as 96.6 ± 4.6%. For the same molecule, the inhibition at 10 µg/mL (porcine pancreatic PLA2; 10 uM substrate concentration) was 63.2 ± 13.5%, the inhibition at 10 µg/mL (porcine pancreatic PLA2; 100 uM substrate concentration) was 45 ± 13.6% and the inhibition at 10 µg/mL (porcine pancreatic PLA2; 500 uM substrate concentration) was 15.4 ± 5.7%. It also gave an inhibition at 10 µg/mL (porcine pancreatic PLA2; [2]) of 8.2 ± 4.6%, an IC50 (porcine pancreatic PLA2; 100 uM substrate concentration) of 20 µM and an IC50 (porcine pancreatic PLA2; 500 uM substrate concentration) of 96.8 µM. The IC50 (porcine pancreatic PLA2; [2]) was 137 µM.
